The record followed here is patent US20030166651A1, “Novel 3-substituted 1,2,4-benzotriazines, a method for their production and the use thereof” (priority 1999, published 2003).

Type in all cases: cell-based
For one test, the system named is HeLa. The test is described as follows: Inhibition of cell growth, HeLa cells. Conditions: three days at 37° C., microscope assessment; for IC50: Homo sapiens, 72 h, read-out: IC50 value (50% inhibition of cell growth). As to the method: (§1) Aqueous sterile solutions of each substance to be tested are injected into 1 ml of the respective cell stock solution at concentration steps of 2-50 μg each time. Subsequently, the test chambers are developed together with a non-treated reference chamber for three days at 37° C. Assessment is performed using a microscope. Cell growth or cell decomposition (condition of cell membrane and cell nucleus) is compared to non-treated reference cells.

For a further test, the system named is Pleural carcinoma. The test is described as follows: Inhibition of cell growth, pleural carcinoma cells. To be noted: 72 h, three days at 37° C., microscope assessment, read-out: IC50 value (50% inhibition of cell growth). As to the method:
as §1

Another test relates to Hep2. The test is described as follows: Inhibition of cell growth, Hep2 cells. Conditions: three days at 37° C., microscope assessment; for IC50: Homo sapiens, HEp-2, 72 h, read-out: IC50 value (50% inhibition of cell growth). As to the method:
as §1

The next test deals with Peritoneal carcinoma. The test is described as follows: Inhibition of cell growth, peritoneal carcinoma cells. Conditions: 72 h, three days at 37° C., microscope assessment, read-out: IC50 value (50% inhibition of cell growth). As to the method: as §1
For test [1], the system named is permanent cell cultures such as HeLa, Hep2 cells, of peritoneal carcinoma and pleural carcinoma cells. The test is described as follows: Inhibition of cell growth, overall statement on the tumor cell cultures. As for the experimental part: as §1

≈ marks a conversion by molar mass, not a printed value.

As to “3-(D-galacto-tetritol-1-yl)-1,2,4-benzotriazine [Compound i]”, the “IC50 value (50% inhibition of cell growth)” value in the test on HeLa was 400 µg/mL.
As usually defined, the IC50 is the point on the concentration scale where inhibition reaches its midpoint. Consider `COC(=O)Cc1nnc2ccc(Cl)cc2n1` [Compound b, 3-(methoxycarbonylmethyl)-6-chlorobenzo-1,2,4-triazine], for which the IC50 is 500 µg/mL (≈ 2100 µM) in the test with Pleural carcinoma, 160 µg/mL (≈ 673 µM) in the test with HeLa, 120 µg/mL (≈ 505 µM) in the test with Hep2 and 150 µg/mL (≈ 631 µM) in the test on Peritoneal carcinoma.
In the case of `COC(=O)Cc1nnc2cccc(Cl)c2n1` [Compound c, 3-(methoxycarbonylmethyl)-5-chlorobenzo-1,2,4-triazine], the concentration for half-maximal inhibition (IC50) is 8 to 16 µg/mL (≈ 33.7 to 67.3 µM) in the test with HeLa, 16 µg/mL (≈ 67.3 µM) in the test with Hep2 and 12 µg/mL (≈ 50.5 µM) with Peritoneal carcinoma. For the same compound, the “inhibition of cell growth / antitumor activity, result in words” value in test [1] is recorded as “preferred activity”.
As for `COC(=O)Cc1nnc2ccc(Cl)c(N)c2n1` [Compound d, 3-(methoxycarbonylmethyl)-5-amino-6-chlorobenzo-1,2,4-triazine], the IC50 is 500 µg/mL (≈ 1980 µM) in the test on Pleural carcinoma, 50 µg/mL (≈ 198 µM) in the test with HeLa, 500 µg/mL (≈ 1980 µM) in the test with Hep2 and 25 to 30 µg/mL (≈ 98.9 to 119 µM) in the test with Peritoneal carcinoma.
`CCOC(=O)Cc1nnc2ccc(Br)cc2n1` [Compound g, 3-(ethoxycarbonylmethyl)-6-bromobenzo-1,2,4-triazine]: the values for the 50% inhibitory concentration (IC50) in the test with HeLa, in the test on Hep2 and in the test with Peritoneal carcinoma were 8 to 16 µg/mL (≈ 27 to 54 µM), 8 to 16 µg/mL (≈ 27 to 54 µM) and 35 µg/mL (≈ 118 µM), respectively. Further, the “inhibition of cell growth / antitumor activity, result in words” value in test [1] is “preferred activity”.
With `OC[C@@H](O)[C@@H](O)[C@H](O)c1nnc2ccccc2n1` [Compound h, 3-(D-arabino-tetritol-1-yl)-1,2,4-benzotriazine], the “IC50 value (50% inhibition of cell growth)” value in the test on HeLa and in the test on Hep2 was 150 µg/mL throughout.
With `OC[C@@H](O)[C@@H](O)[C@H](O)c1nnc2ccc(Cl)cc2n1` [Compound k, 3-(D-arabino-tetritol-1-yl)-6-chlorobenzo-1,2,4-triazine], in the test with HeLa, the “IC50 value (50% inhibition of cell growth)” value was 250 µg/mL.
On to `CC(C)NC(=O)Cc1nnc2ccccc2n1` [Compound l, 3-(isopropylaminocarbonylmethyl)-1,2,4-benzotriazine], for which the “inhibition of cell growth / antitumor activity, result in words” value in test [1] is on record as “preferred activity”.
